Assay results taken from patent US8940897B2, “1,3,4-oxadiazole and 1,3,4-thiadiazole β-lactamase inhibitors” (priority 2012, dated 2015).
Where a name gives a salt, the structure may show the parent alone.

system: bacterial strains that express the class D cephalosporinase OXA-15; experiment: Synergy MIC / standard BLI potentiation MIC assay, strains expressing OXA-15;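 further: more active means a lower MIC or sMIC than Avibactam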; assay type: cell-based, E. coli; settings: in the presence of a β-lactam; comparator Avibactam (CCC)
Method: Unless otherwise indicated, the activity of the BLI compounds can be described by the MIC value obtained from a Synergy MIC assay or a BLI potentiation assay (e.g as described herein), both of which are run in the presence of a β-lactam.
The experimental protocol was performed according to Clinical and Laboratory Standards Institute (CLSI) guidelines with modifications as described below (CLSI guidelines can be derived from the CLSI document M07-A9 published in January 2012: “Methods for Dilution Antimicrobial Susceptibility Tests for Bacteria That Grow Aerobically; Approved Standard-Ninth Edition”).
To prepare for MIC testing, frozen glycerol stocks of clinical isolates (Klebsiella pneumoniae, Eschericia coli, Enterobacter spp, Citrobacter spp, or Pseudomonas aeruginosa) were used to streak for isolated colonies on rich, non-selective, tryptic soy agar containing 5% sheep's blood (TSAB). Frozen glycerol stocks of laboratory engineered, isogenic E. coli strains, which contain cloned β-lactamase expressing plasmids were used to streak for isolated colonies on rich, selective LB agar supplemented with 25 μg/mL tetracycline to maintain the plasmid. All strains were incubated at 37° C. for 18-24 hrs.
On the day of testing, primary cultures were started by scraping off 5-10 colonies from the TSAB plates containing clinical strains or the tetracycline supplemented LB plates containing engineered strains. The clinical strain material was suspended in ˜5 mL of cation adjusted Mueller Hinton Broth (CAMHB) in 14 mL culture tubes. The engineered strain material was suspended in CAMHB (supplemented with 25 μg/mL tetracycline) in 14 mL culture tubes. All strains were incubated at 37° C. with aeration (200 rpm) for ˜2 hrs until the optical density at 600 nm (OD600) was ≧0.1.
The two compound components of the assay were each diluted in CAMHB and added to the 96-well broth microdilution assay plates. 50 μL of the β-lactam was added to each well of the assay plate in 2-fold dilutions with final concentrations ranging from 128 to 0.13 μg/mL. 25 μL of the BLI compound was added to all wells in the broth microdilution plates at a final concentration of 4 μg/mL. Inoculum cultures were prepared by standardizing the primary cultures to OD600=0.1 and then adding 20 μL of the adjusted primary culture per 1 mL CAMHB for clinical strains or CAMHB (supplemented with tetracycline at 100 μg/mL) for engineered strains, so that the final inoculum density was ˜10^5 colony forming units per milliliter. Diluted inoculum cultures were used to inoculate 25 μl, per well in 96-well broth microdilution assay plates. The final volume of each well was 100 μL and contained a β-lactam at different concentrations, a BLIcompound at 4 μg/mL concentration, the bacterial culture at an OD600 of approximately 0.001 and when necessary tetracycline at 25 μg/mL.
Plates were incubated for 18-20 hours at 37° C. with aeration (200 rpm). Following incubation, growth was confirmed visually placing plates over a viewing apparatus (stand with a mirror underneath) and then OD600 was measured using a SpectraMax 340PC384 plate reader (Molecular Devices, Sunnyvale, Calif.). Growth was defined as turbidity that could be detected with the naked eye or achieving minimum OD600 of 0.1. MIC values were defined as the lowest concentration producing no visible turbidity.
The synergy MIC (sMIC) assay determines the concentration of the BLI required to potentiate the activity of a fixed concentration of a β-lactam antibiotic against β-lactamase producing bacterial strains. The experimental protocol was performed according to Clinical and Laboratory Standards Institute (CLSI) guidelines with modifications as described below (CLSI guidelines can be derived from the CLSI document M07-A9 published in January 2012: “Methods for Dilution Antimicrobial Susceptibility Tests for Bacteria That Grow Aerobically; Approved Standard-Ninth Edition”). […]

Structure (SMILES)	activity against bacterial strains that express OXA-15 β-lactamase compared with Avibactam
N=C(N)NCc1nnc([C@@H]2CC[C@@H]3CN2C(=O)N3OS(=O)(=O)O)o1 [Compound 704, (2S,5R)-2-(5-(guanidinomethyl)-1,3,4-oxadiazol-2-yl)-7-oxo-1,6-diazabicyclo[3.2.1]octan-6-yl hydrogen sulfate]	more active than Avibactam
Nc1nnc([C@@H]2CC[C@@H]3CN2C(=O)N3OS(=O)(=O)O)o1 [Compound 707, (2S,5R)-2-(5-amino-1,3,4-oxadiazol-2-yl)-7-oxo-1,6-diazabicyclo[3.2.1]octan-6-yl hydrogen sulfate]	more active than Avibactam
N=C(N)N1CCC(c2nnc([C@@H]3CC[C@@H]4CN3C(=O)N4OS(=O)(=O)O)o2)CC1 [Compound 712, (2S,5R)-2-(5-(1-carbamimidoylpiperidin-4-yl)-1,3,4-oxadiazol-2-yl)-7-oxo-1,6-diazabicyclo[3.2.1]octan-6-yl hydrogen sulfate]	more active than Avibactam
O=C1N2C[C@@H](CC[C@H]2c2nnc(N3CCNCC3)o2)N1OS(=O)(=O)O [Compound 713, (2S,5R)-7-oxo-2-(5-(piperazin-1-yl)-1,3,4-oxadiazol-2-yl)-1,6-diazabicyclo[3.2.1]octan-6-yl hydrogen sulfate]	more active than Avibactam
N=C(N)NCCCc1nnc([C@@H]2CC[C@@H]3CN2C(=O)N3OS(=O)(=O)O)o1 [Compound 714, (2S,5R)-2-(5-(3-guanidinopropyl)-1,3,4-oxadiazol-2-yl)-7-oxo-1,6-diazabicyclo[3.2.1]octan-6-yl hydrogen sulfate]	more active than Avibactam
NCC(O)c1nnc([C@@H]2CC[C@@H]3CN2C(=O)N3OS(=O)(=O)O)o1 (stereo partly drawn) [Compound 715, (2S,5R)-2-(5-(2-amino-1-hydroxyethyl)-1,3,4-oxadiazol-2-yl)-7-oxo-1,6-diazabicyclo[3.2.1]octan-6-yl hydrogen sulfate]	more active than Avibactam
NCCNCCc1nnc([C@@H]2CC[C@@H]3CN2C(=O)N3OS(=O)(=O)O)o1 [Compound 716, (2S,5R)-2-(5-(2-((2-aminoethyl)amino)ethyl)-1,3,4-oxadiazol-2-yl)-7-oxo-1,6-diazabicyclo[3.2.1]octan-6-yl hydrogen sulfate]	more active than Avibactam
NCC(N)c1nnc([C@@H]2CC[C@@H]3CN2C(=O)N3OS(=O)(=O)O)o1 (stereo partly drawn) [Compound 717, (2S,5R)-2-(5-(1,2-diaminoethyl)-1,3,4-oxadiazol-2-yl)-7-oxo-1,6-diazabicyclo[3.2.1]octan-6-yl hydrogen sulfate]	more active than Avibactam
O=C1N2C[C@@H](CC[C@H]2c2nnc(C3CCNCC3)s2)N1OS(=O)(=O)O [Compound 719, (2S,5R)-7-oxo-2-(5-(piperidin-4-yl)-1,3,4-thiadiazol-2-yl)-1,6-diazabicyclo[3.2.1]octan-6-yl hydrogen sulfate]	more active than Avibactam
O=C1N2C[C@@H](CC[C@H]2c2nnc(CC3CNC3)o2)N1OS(=O)(=O)O [Compound 725, (2S,5R)-2-(5-(azetidin-3-ylmethyl)-1,3,4-oxadiazol-2-yl)-7-oxo-1,6-diazabicyclo[3.2.1]octan-6-yl hydrogen sulfate]	more active than Avibactam
NCC(O)Cc1nnc([C@@H]2CC[C@@H]3CN2C(=O)N3OS(=O)(=O)O)o1 (stereo partly drawn) [Compound 733, (2S,5R)-2-(5-(3-amino-2-hydroxypropyl)-1,3,4-oxadiazol-2-yl)-7-oxo-1,6-diazabicyclo[3.2.1]octan-6-yl hydrogen sulfate]	more active than Avibactam
N=C(N)N[C@H]1C[C@H](c2nnc([C@@H]3CC[C@@H]4CN3C(=O)N4OS(=O)(=O)O)o2)C1 [Compound 748, (2S,5R)-2-(5-((1r,3S)-3-guanidinocyclobutyl)-1,3,4-oxadiazol-2-yl)-7-oxo-1,6-diazabicyclo[3.2.1]octan-6-yl hydrogen sulfate]	more active than Avibactam
N[C@H]1C[C@H](NCc2nnc([C@@H]3CC[C@@H]4CN3C(=O)N4OS(=O)(=O)O)o2)C1 [Compound 757, (2S,5R)-2-(5-(((1r,3S)-3-aminocyclobutyl)amino)methyl)-1,3,4-oxadiazol-2-yl)-7-oxo-1,6-diazabicyclo[3.2.1]octan-6-yl hydrogen sulfate]	more active than Avibactam
O=C1N2C[C@@H](CC[C@H]2c2nnc(CNC3CCNCC3)o2)N1OS(=O)(=O)O [Compound 769, (2S,5R)-7-oxo-2-(5-((piperidin-4-ylamino)methyl)-1,3,4-oxadiazol-2-yl)-1,6-diazabicyclo[3.2.1]octan-6-yl hydrogen sulfate]	more active than Avibactam
NC1CCN(c2nnc([C@@H]3CC[C@@H]4CN3C(=O)N4OS(=O)(=O)O)o2)CC1 [Compound 773, (2S,5R)-2-(5-(4-aminopiperidin-1-yl)-1,3,4-oxadiazol-2-yl)-7-oxo-1,6-diazabicyclo[3.2.1]octan-6-yl hydrogen sulfate]	more active than Avibactam
O=C1N2C[C@@H](CC[C@H]2c2nnc([C@@H]3CNCCN3)o2)N1OS(=O)(=O)O [Compound 778, (2S,5R)-7-oxo-2-(5-((S)-piperazin-2-yl)-1,3,4-oxadiazol-2-yl)-1,6-diazabicyclo[3.2.1]octan-6-yl hydrogen sulfate]	more active than Avibactam
N[C@H]1CC[C@@H](c2nnc([C@@H]3CC[C@@H]4CN3C(=O)N4OS(=O)(=O)O)o2)CC1 [Compound 780, (2S,5R)-2-(5-((1s,4R)-4-aminocyclohexyl)-1,3,4-oxadiazol-2-yl)-7-oxo-1,6-diazabicyclo[3.2.1]octan-6-yl hydrogen sulfate]	more active than Avibactam
N[C@H]1CC[C@H](c2nnc([C@@H]3CC[C@@H]4CN3C(=O)N4OS(=O)(=O)O)o2)CC1 [Compound 781, (2S,5R)-2-(5-((1r,4S)-4-aminocyclohexyl)-1,3,4-oxadiazol-2-yl)-7-oxo-1,6-diazabicyclo[3.2.1]octan-6-yl hydrogen sulfate]	more active than Avibactam
O=C1N2C[C@@H](CC[C@H]2c2nnc(CCCN3CCNCC3)o2)N1OS(=O)(=O)O [Compound 792, (2S,5R)-7-oxo-2-(5-(3-(piperazin-1-yl)propyl)-1,3,4-oxadiazol-2-yl)-1,6-diazabicyclo[3.2.1]octan-6-yl hydrogen sulfate]	more active than Avibactam
O=C1N2C[C@@H](CC[C@H]2c2nnc(N3CCNCC3)s2)N1OS(=O)(=O)O [Compound 797, (2S,5R)-7-oxo-2-(5-(piperazin-1-yl)-1,3,4-thiadiazol-2-yl)-1,6-diazabicyclo[3.2.1]octan-6-yl hydrogen sulfate]	more active than Avibactam
